In patent US20110245200A1, “USE OF IDRABI[…] DECREASING THE INCIDENCE OF BLEEDINGS DURING AN ANTI[…]” (SANOFI-AVENTIS, priority 2008, published 2011):

Columns and labels:
[1] = tested on: patients with acute symptomatic DVT; assay: EQUINOX clinical trial: bleeding (safety) and efficacy over 6 months of treatment; assay type: in vivo, human; conditions: for Kaplan-Meier cumulative incidence of first bleeding (any bleeding), comparison of the two groups: FIG. 1; for Major bleeding, number of patients [n] / Any bleeding (clinically relevant major or non-major), % of patients / Any bleeding (clinically relevant major or non-major), number of patients [n] / Major bleeding, % of patients (incidence): first study drug administration up to D182; for Any bleeding (clinically relevant major or non-major), % of patients: crude rate; for Any bleeding (clinically relevant major or non-major), number of patients [n]: once-weekly s.c., equimolar doses (idrabiotaparinux 3.0 mg, idraparinux 2.5 mg); for Major bleeding, % of patients (incidence): p=0.006 Fisher's exact test
Text: (§1) This trial was aimed at studying the bioequipotency of idrabiotaparinux and idraparinux, as assessed by anti-Xa activity at month 6, in patients with acute symptomatic DVT, as well as studying the ability to neutralize idrabiotaparinux with avidin, and also at documenting the safety and efficacy of idrabiotaparinux and idraparinux.
The study was an international, multi-center, double-blind, randomized, with two parallel groups phase III study, in patients treated for acute symptomatic DVT. In order to get 600 patients (300 patients in each treatment group) who completed the 6-month treatment with idrabiotaparinux or idraparinux, 700 patients with confirmed symptomatic DVT of the lower limbs were to be randomized to either idrabiotaparinux (n=350 patients) or idraparinux (n=350 patients). 300 completed patients per group, with a 6-month extent of exposure to the drug, were considered as an adequate sample size to assess clinical safety of idrabiotaparinux, i.e. to characterize the pattern of adverse events over time.
During the study period, patients were treated with equimolar doses of idrabiotaparinux (3.0 mg) or of idraparinux (2.5 mg). The drug was injected subcutaneously, once-weekly.
For safety, the main endpoints were clinically relevant bleeding (major or clinically relevant non-major), as classified by the Central Independent Adjudication Committee (hereafter “CIAC”), and death (cause of death validated by the CIAC).
The safety population consisted of all randomized patients who took at least one dose of study medication (all treated population). Patients were analyzed according to the treatment they actually received.
The main safety analysis period was the randomized treatment period, defined as the period from first study drug administration (taken as Day 1) up to Day 182 (hereafter “D182”).
The numbers and percentages of patients with clinically relevant bleeding within 6 months (from first study drug administration up to Day 182) were presented by treatment group. The rate of any clinically relevant bleeding was calculated by dividing the number of patients with this event by the number of treated patients (crude rate). Bleeding rate estimates and exact 95% confidence interval (hereafter “C1”) were presented by treatment group. Cumulative incidences of any clinically relevant bleeding during the on-treatment period were also described by treatment group using the Kaplan-Meier method. Time to first clinically relevant bleeding was censored at the minimum day between: Day 182; the day of last study drug administration+7 days; the day of death; and the day of last clinical event assessment giving any information on bleeding symptoms.
The numbers and percentages (crude rates) of patients with major bleedings within 6 months (from first study drug administration up to Day 182) were also presented by treatment group. The criteria used by the CIAC to classify major bleedings were summarized according to the worst severity. The order of severity was: fatal bleeding, including fatal intra-cranial hemorrhage (hereafter “ICH”), non-fatal bleeding within a critical organ, non-fatal bleeding with fall in hemoglobin or transfusion.

[2] = tested on: patients with DVT; assay: Putative indirect comparison of idrabiotaparinux with standard treatment (EQUINOX OR times van Gogh DVT OR); assay type: in vivo, human; conditions: 95% CI: 0.061-1.020; p value 0.053; calculated as 0.200 times 1.245
Procedure: For major bleedings, the putative odds ratio (OR) comparing idrabiotaparinux to the standard treatment (OR=0.249 [95% CI: 0.061-1.020]) yielded a p value of 0.053; this putative OR was calculated as OR of idrabiotaparinux versus idraparinux in EQUINOX (0.200) times OR of idraparinux versus standard treatment in van Gogh DVT (1.245).

[3] = tested on: activated factor X; assay: EQUINOX clinical trial: bioequipotency assessed by anti-Xa activity; assay type: in vivo, human; conditions: equimolar doses
Text: as §1

[4] = tested on: patients with DVT; conditions: 6 months after start of treatment (Day 183), N. Engl. J. Med., 2007, 357, 1094-104; cited from earlier work
[5] = tested on: patients with DVT; assay: VAN GOGH clinical trial (DVT): bleeding incidence, idraparinux versus standard therapy; assay type: in vivo, human
Text: According to the results published in N. Engl.

[6] = major bleedings up to D182 by adjudication criterion, all treated population

Row | Structure (SMILES) | Major bleeding, number of patients [n] ([1]; all treated population) | Any bleeding (clinically relevant major or non-major), % of patients ([1]; all treated population) [%] | Any bleeding (clinically relevant major or non-major), number of patients [n] ([1]; all treated population) | Major bleeding, % of patients (incidence) ([1]; all treated population) [%] | Fatal bleeding: Gastrointestinal, number of patients [n] [1, 6] | Fatal bleeding: Intracranial, number of patients [n] [1, 6] | Fatal bleeding: Other, number of patients [n] [1, 6] | Non-fatal bleeding associated with a fall in hemoglobin >=2 g/dL and/or leading to a transfusion >=2 units of blood, % of patients [1, 6] [%] | Non-fatal bleeding associated with a fall in hemoglobin >=2 g/dL and/or leading to a transfusion >=2 units of blood, number of patients [n] [1, 6] | Non-fatal bleeding into a critical organ: Intracranial, number of patients [n] [1, 6] | Non-fatal bleeding into a critical organ: Other, number of patients [n] [1, 6] | Non-fatal bleeding into a critical organ: Pericardial, number of patients [n] [1, 6] | Non-fatal bleeding into a critical organ: Retroperitoneal, number of patients [n] [1, 6] | further results
1 | CO[C@H]1O[C@H](COS(=O)(=O)O)[C@@H](O[C@@H]2O[C@@H](C(=O)O)[C@@H](O[C@H]3O[C@H](COS(=O)(=O)O)[C@@H](O[C@@H]4O[C@H](C(=O)O)[C@@H](O[C@H]5O[C@H](COS(=O)(=O)O)[C@@H](OC)[C@H](OC)[C@H]5NC(=O)CCCCCNC(=O)CCCC[C@@H]5SC[C@@H]6NC(=O)N[C@@H]65)[C@H](OC)[C@H]4OC)[C@H](OS(=O)(=O)O)[C@H]3OS(=O)(=O)O)[C@H](OC)[C@H]2OC)[C@H](OS(=O)(=O)O)[C@H]1OS(=O)(=O)O [Idrabiotaparinux, idrabiotaparinux] | 3 | 5.2 | 20 | 0.8 | 0 | 0 | 1 | 0.5 | 2 | 0 | 0 | 0 | 0 | Odds ratio for major bleedings, idrabiotaparinux versus idraparinux ([1]; EQUINOX): 0.200; Kaplan-Meier cumulative incidence of first bleeding (any bleeding), comparison of the two groups ([1]; on-treatment period, at month 3): comparable; Kaplan-Meier cumulative incidence of first major bleeding, comparison of the two groups ([1]; FIG. 2, on-treatment period, after month 2): marked difference in major bleeding incidences between the two treatment groups, in favour of the idrabiotaparinux group; Fatal bleeding: Other, % of patients [1, 6]: 0.3%; Fatal bleeding: Other, number of patients [n] ([1]; major bleedings up to D182 by adjudication criterion, all treated population, listed as idrabiotaparinux): One; Safety (observed bleedings) compared with idraparinux ([1]; patients with DVT treated for 6 months, equimolar doses): better safety with less observed bleedings; Putative odds ratio (OR) for major bleedings, idrabiotaparinux versus standard treatment [2]: 0.249; anti-activated factor X pharmacological activity (anti-Xa activity) compared with idraparinux [3]: same
2 | CO[C@H]1O[C@H](COS(=O)(=O)O)[C@@H](O[C@@H]2O[C@@H](C(=O)O)[C@@H](O[C@H]3O[C@H](COS(=O)(=O)O)[C@@H](O[C@@H]4O[C@H](C(=O)O)[C@@H](O[C@H]5O[C@H](COS(=O)(=O)O)[C@@H](OC)[C@H](OC)[C@H]5OC)[C@H](OC)[C@H]4OC)[C@H](OS(=O)(=O)O)[C@H]3OS(=O)(=O)O)[C@H](OC)[C@H]2OC)[C@H](OS(=O)(=O)O)[C@H]1OS(=O)(=O)O [Idraparinux, idraparinux] | 14 | 7.3 | 27 | 3.8 | 0 | 3 | 0 | 1.9 | 7 | 2 | 0 | 0 | 2 | Kaplan-Meier cumulative incidence of first bleeding (any bleeding), comparison of the two groups ([1]; on-treatment period, at month 6): higher than in the idrabiotaparinux group; Fatal bleeding: Intracranial, % of patients [1, 6]: 0.8%; Non-fatal bleeding into a critical organ: Intracranial, % of patients [1, 6]: 0.5%; Non-fatal bleeding into a critical organ: Retroperitoneal, % of patients [1, 6]: 0.5%; Fatal bleeding: Intracranial, number of patients [n] ([1]; major bleedings up to D182 by adjudication criterion, all treated population, listed as idraparinux): three; Intracranial hemorrhages observed (fatal and non-fatal), number ([1]; up to D182, all treated population): five; Incidence of clinically relevant bleedings (any bleedings) [4]: 8.3%; Rate of major bleedings [4]: 1.9%; Odds ratio for major bleedings, idraparinux versus standard treatment [5]: 1.245
